Data: patent publication US9326993B2, “Treatment of pulmonary and pleural fibrosis using HSP27 inhibitors” (ONCOGENEX TECHNOLOGIES INC., priority 2011, dated 2016)

Tests used:
mesothelial Met-5A cells = assay: Scratch test (migration) on Met-5A cells after rTGF-β1; assay type: cell-based, human; conditions: cells treated with rTGF-β1
Description: (§1) HSP27 siRNA were purchased from applied bios system (Courtaboeuf, France). The sense and antisense sequence were respectively: 5′-GUUCAAAGCAACCACCUGUtt-3 (SEQ ID No: 4)′ and 5′-ACAGGUGGUUGCUUUGAACtt-3′. (SEQ ID No: 5). They were used at a concentration of 50 nM. SiRNA were transfected using INTERFERin (polyplus, Illkirch, France) following the manufacturer recommendations. 5-6 hours after transfection medium were changed and cells were treated or not with 10 ng/ml TGF-β1 for 12, 24 or 48 hours. Seq ID No. 3 was used as a random control oligonucleotide.
Therefore, HSP27 inhibition blocked this all well known features of EMT induced by TGF-β1 in cultured cells. This corresponded to HSP27 expression levels (FIG. 3G).

[1] = tested on: human mesothelial Met-5A cells; assay: rTGF-β1-induced EMT in Met-5A cells (western blot, RT-PCR); assay type: cell-based; conditions: siRNA 50 nM, rTGF-β1 10 ng/ml
Description: (§2) Mesothelial rat established cell line 4/4 RM4 cells (American Type Culture Collection—ATCC—Rockville, Md.) were seeded in Ham's F10 (Lonza), with FBS 15%. Mesothelial human established cell line MET-5A (ATCC) were seeded in Medium 199 (lonza), 1% L-glutamine, 1% penicillin-streptomycin with 10% FBS. Epithelial human cell line A549 cells (ATCC) and were seeded in Ham's F10 (lonza) with 10% FBS.
(§3) For EMT induction and analysis, all the different cells were exposed to their respective medium containing 10 ng/ml recombinant (r)TGF-β1 (R&D system, Lille, France) for 6, 12, 24, or 48 hours.
as §1
Protein extraction was made using triton X 100 during 30 min at 4° C., vortexing every 10 min. Protein dosage is made with the modified lowry kit (Biorad, Marne-la-Coquette, France). Equal amounts of protein (30-50 μg) were electrophoresed through 8 to 12% SDS polyacrylamide gels. The separate protein bands were transferred onto a PVDF membrane. The non-specific sites were saturated with a solution of PBS-tween 0.1%, nonfat milk 8%. Membranes were incubated with primary Abs over night at 4° C. Secondary Abs IgG linked to HRP (HorseRadish Peroxidase, Jackson ImmunoResearch Laboratories, PA, USA) were used at a concentration of 1/5000. Enhanced ChemiLuminescent substrat (ECL, santa cruz biotechnology, CA, USA) was used to detect the protein of interest. […]
(§4) Total RNA was extracted using TRIzol (Invitrogen, Cergy Pontoise, France) from MET-5A and A549 cells treated or not with rTGF-β1 12 or 24 hours and transfected or not by HSP27 siRNA or plasmid encoding HSP27. […] Quantitative RT-PCR was performed on the cDNA using the SYBR green master mix (promega, Charbonnieres, France). […]

epithelial A549 cells = assay: rTGF-β1-induced EMT in A549 cells; assay type: cell-based, human; conditions: siRNA 50 nM, rTGF-β1 10 ng/ml
Description: as §2, §3
HSP27 siRNA were purchased from applied bios system (Courtaboeuf, France). The sense and antisense sequence were respectively: 5′-GUUCAAAGCAACCACCUGUtt-3 (SEQ ID No: 4)′ and 5′-ACAGGUGGUUGCUUUGAACtt-3′. (SEQ ID No: 5). They were used at a concentration of 50 nM. SiRNA were transfected using INTERFERin (polyplus, Illkirch, France) following the manufacturer recommendations. 5-6 hours after transfection medium were changed and cells were treated or not with 10 ng/ml TGF-β1 for 12, 24 or 48 hours. […]
as §4

## HSP27 siRNA: siRNA, sense 5′-GUUCAAAGCAACCACCUGUtt-3′ (SEQ ID No: 4), antisense 5′-ACAGGUGGUUGCUUUGAACtt-3′ (SEQ ID No: 5) (sense GUUCAAAGCAACCACCUGUTT; antisense ACAGGUGGUUGCUUUGAACTT; chemistry not given here; listed as Homo sapiens)
Mesothelial Met-5A cells
  migration capacity in scratch test: much weaker migration
Mesothelial Met-5A cells; 48 h
  wound recovery by 48 h: still largely unrecovered
[1]; Met-5A cells
  rTGF-β1 induced α-SMA: inhibits
[1]; 48 h
  rTGF-β1-induced E-cadherin down-regulation: blocks
  rTGF-β1-induced α-SMA upregulation: blocks
Epithelial A549 cells
  rTGF-β1 induced α-SMA: inhibits
